We go through 3 compounds from US20220193047A1, “METHODS OF ENHANCING RADIOTHERAPY USING FERROPTOSIS INDUCERS AS RADIOSENSITIZERS” (THE TRUSTEES OF COLUMBIA UNIVERSITY IN THE CITY OF NEW YORK, priority 2019, published 2022).

Common to all, as to assay type: cell-based
Test [1] deals with PTGS2 mRNA. Kind of test: RT-qPCR of PTGS2 mRNA. The following applies: HT-1080, 6 Gy radiation, 24 hours; 100 nM RSL3 or 10 μM ferrostatin-1. As for the experimental part:
RNA was extracted using the Qiashredder and QIAGEN RNeasy Mini kits (QIAGEN) according to the manufacturer's protocol. 2 μg total RNA for each sample was used as input for each reverse transcription reaction. Quantitative PCR reactions were performed using the Power SYBR Green PCR Master Mix (Thermo Fisher Scientific). Triplicate samples per condition were analyzed on an Applied Biosystems 7300 qPCR instrument using absolute quantification settings. Differences in mRNA levels compared to ACTB internal reference control were computed between control and experimental conditions using the ΔΔCt method. The primers used in this study are listed below.
(Quantitative PCR measures a nucleic acid by following its amplification.)

Test [2] relates to A549 cells. Description: Clonogenic assay with radiation, A549. As for the experimental part: (§1) 500 cells were seeded per well in 6-well plates in their respective growth media and incubated overnight. The next day, cells were co-treated with DMSO or compounds and radiation using a Gammacell 40 Caesium-137 irradiator (Theratronics). Plates were monitored every day using a light microscope for formation of colonies in the DMSO-treated wells. When colonies of >50 cells are clearly visible, the growth medium was discarded from all plates. The cells were washed with PBS, then fixed and stained with crystal violet solution (0.05% crystal violet, 1% formaldehyde, 1% methanol in PBS). Colonies were then directly visualized and counted.
(§2) The coefficient of drug interaction (CDI), used to compute interaction between two drugs, was used to quantify synergy between cell death inducers and radiation according to the formula CDI=AB/(A×B), where AB is the surviving fraction of the combination treatment, and A and B are the surviving fractions of the individual treatments. […]
(§3) It was then tested whether cell death enhancement of radiation with ferroptosis inducers occurred across diverse tumor cell types. […] In addition to the initial ferroptosis-sensitive HT-1080 sarcoma cell line, glioma and lung cancer cells were evaluated, due to the clinical relevance of radiation therapy for the treatment of these tumor types. […]

Test [3] has as its system cleaved caspase-3. Description: Western blot of cleaved caspase-3. The following applies: for Cleaved caspase-3, added to radiation: HT-1080, 6 Gy, 24 h; for Cleavage of caspase-3, compound alone: HT-1080, IKE or RSL3 24 h, staurosporine 500 nM for 6 h. As for the experimental part:
1 million cells were seeded in 10 cm dishes and treated with compounds and/or radiation on the next day. […] After quantification by Bradford, samples were mixed with 5×SDS loading buffer and separated by SDS-polyacrylamide gel electrophoresis. After transfer, membranes were blocked for 10 min in Tris-buffered saline (pH 7.4) with 1% Tween-20 (TBS-T) with 5% milk and incubated in primary antibody overnight at 4° C. Following 3× for 5 min washes in TBS-T, the membrane was incubated with secondary antibodies for 1 hr. The membrane was washed again in TBST 3× for 5 min prior to visualization using enhanced chemiluminescence (ECL Western Blotting Substrate, Pierce). Antibody for cleaved caspase 3 (Cell Signaling Technology, #9661) was used at 1:1000 and detected using a Peroxidase AffiniPure Goat Anti-Rabbit IgG (H+L) (Jackson ImmunoResearch, 111-295-144) at 1:5000 dilution.
DNA damage is a potent inducer of apoptosis. […] Despite this, some quantity of 17-kDa cleaved caspase-3 was still detectable in the Z-VAD-FMK-treated sample. To further check for potential radiation-induced apoptosis in this model at a later time point, we attempted to rescue the effects of radiation using 100 μM Z-VAD-FMK after 48, 72, and 96 h (FIG. 10).
Background: A western blot detects proteins with antibodies after separation by electrophoresis.

Test [4] concerns HT-1080 cells. Kind of test: Microbeam irradiation and clonogenic assay. The following applies: HT-1080, clonogenic survival.
Protocol: 300-500 HT-1080 cells were plated on polypropylene film treated with 3.5 μg/cm^2 Cell-Tak adhesive (BD Biosciences). The next day, cells were stained with Hoechst 33342 for 30 min. Cells were imaged, and their center-of-gravity coordinates were registered to automatically locate them by the microbeam control program. For nuclear irradiation, protons (^1H+) were directed by a precision beam to the center of the nucleus. For cytoplasmic irradiation, protons were directed to two locations 7 μm away from the ends of the major axis of each nucleus, as previously described (Wu et al., 1999). In each case, the beam has an accuracy of ±0.2 μm with 95% efficiency. Post-irradiation, cells were trypsinized and re-plated at a density of 500 cells per well in 6-well plates for clonogenic assays.
To target the microbeam, cells were labeled with Hoechst stain and imaged. Nuclear radiation was delivered to the center of gravity of the cell nucleus, whereas cytoplasmic radiation was delivered to two sites 7 microns away from the nuclear edge along the nuclear long axis (FIG. 5A). Using this method, we first established dose responses of these cells to nuclear and cytoplasmic radiation. […] Compared to conventional photon radiation, these doses approximately correspond to 1 Gy to the nucleus and between 1-5 Gy to the cytoplasm, a therapeutically relevant dose range that is consistent with our previous experiments.
Test [5] concerns PC9 cells. Description: Clonogenic assay with radiation, PC9. As for the experimental part:
as §1, §2, §3

The subject of test [6] is human glioma slice cultures. Kind of test: Human glioma organotypic slice cultures, H2DCFDA ROS by flow cytometry. As for the experimental part: Human surgical specimens were collected from Columbia University Medical Center operating theaters in accordance with Institutional Review Board protocols. Surgical specimens were deidentified, placed in a sterile 50 mL conical tube containing ice-cold sucrose solution (210 mM sucrose, 10 mM glucose, 2.5 mM KCl, 1.25 mM NaH2PO4, 0.5 mM CaCl2), 7 mM MgCl2 and 26 mM NaHCO3). Tissue specimens were let rest in the sucrose solution for 20 minutes. Tissue specimens were then cut into 300 μm sections using a Mcllwain Tissue Chopper. Sections after cutting were let rest in the sucrose solution for 20 minutes. Then the tissue sections were transferred onto Millicell cell culture inserts ([…], 30 mm diameter) and placed in 6-well plates containing 1.5 mL of media. The media consisted of DMEM/F12 plus N−2 Supplement. […]
To further study the potential of combining small-molecule ferroptosis inducers and radiation for human therapeutic use, ex vivo samples of human glioma, which have been immediately cut from freshly resected tumors and grown as organotypic slice cultures, were used as previously described (Parker et al., 2017). De-identified patient information for these tumor samples are recorded in Table 4. […] Tumor cell viability within slices was not assessed, as the number of tumor cells embedded in each slice cannot be normalized between slices.

For `COC(=O)c1ccc([C@@H]2c3[nH]c4ccccc4c3C[C@@H](C(=O)OC)N2C(=O)CCl)cc1` [RSL3, Ras Synthetic Lethal 3], in test [1], the “PTGS2 mRNA” value is listed as “even further enhanced”. In addition, in test [2], the “Highest observed coefficient of Drug Interaction (CDI) in combination with IR” value (shortened to “Highest observed coefficient”) amounted to 0.31. Also, in test [3], the “Cleaved caspase-3, added to radiation” value is recorded as “did not further increase the amount of cleaved caspase-3” and the “Cleavage of caspase-3, compound alone” value is listed as “did not induce detectable cleavage of caspase-3”. For the same compound, in test [4], the “Synergy with cytoplasmic microbeam radiation” value is on record as “synergized strongly” and the “Synergy with nuclear microbeam radiation” value is “no synergy”. For the same compound, the “Highest observed coefficient” value in test [5] stood at 0.64.
Take `CCOC(=O)c1ccc(NC2CCCCC2)c(N)c1` [ferrostatin-1]: the “PTGS2 mRNA” value in test [1] is recorded as “reversed this induction of PTGS2”. Besides, in test [6] (10 μM ferrostatin-1), the “ROS accumulation with IKE and radiation, ferrostatin-1 co-treatment” value was “partially suppressible”.
Regarding `CC(C)Oc1ccc(C(=O)Cn2ccnc2)cc1-n1c(CN2CCN(C(=O)COc3ccc(Cl)cc3)CC2)nc2ccccc2c1=O` [IKE, imidazole ketone erastin], in test [2], the “Highest observed coefficient” value amounted to 0.30. Moreover, the “ROS generation (H2DCFDA), combination with radiation vs control” value in test [6] (10 μM IKE, 2 Gy radiation, 24 hours, three responsive slice cultures) was “significant enhancement of ROS generation”. For the same compound, in test [3], the “Cleaved caspase-3, added to radiation” value is on record as “did not further increase the amount of cleaved caspase-3” and the “Cleavage of caspase-3, compound alone” value is recorded as “did not induce detectable cleavage of caspase-3”. Also, in test [4], the “Synergy with cytoplasmic microbeam radiation” value was “synergized strongly”. In test [5], the “Highest observed coefficient” value was found to be 0.70.
